Legend:
myeloid leukemia = settings: first injection of an alpha-particle emitter to humans; cited from earlier work
[1] = Biodistribution of In-111-DTPA and large liposomes; settings: in vivo
Excerpt: FIGS. 10A-10C depict the biodistribution of ^111In-DTPA only (FIG. 10A) zwitterionic liposomes (FIG. 10B), ^111In-DTPA cationic liposomes (FIG. 10C).
Over time the percentage per gram of tissue tested of the original amount of In-111 found in the spleen and liver increases while that in blood and other tissues such as heart, lungs, stomach, intestines, kidneys, bone, and muscle remain constant or decrease. […] Preinjection with empty large liposomes to saturate the reticuloendothelial organs will reduce non-specific radionuclide uptake by the spleen and liver.

| Molecule | trial outcome (myeloid leukemia) | tissue localization of In-111 [1] |
| --- | --- | --- |
| HuM195: 213Bi conjugated to the anti-CD33 antibody HuM195 | feasibility and anti-cancer activity with minimal toxicity |  |
| O=C([O-])CN(CCN(CC(=O)[O-])CC(=O)[O-])CCN(CC(=O)[O-])CC(=O)[O-].[111In+3].[H+].[H+] [DTPA-chelated In-111] |  | localize to the kidneys more than to other tissues |

From patent US20040166060A1, “Liposomal encapsulation of alpha particle emittors and uses thereof” (Sloan Kettering Institute for Cancer Research, priority 2000, published 2004)
